Key:
Format in all cases: in vivo
[1] = test system: male C57/B6 mice; assay: Remote sensing (telemetric) determination of mice activities; conditions: Table 5, 20 mg/kg p.o., 6 hours after administration, control 2% EtOH
Procedure: Remote sensing determination of mice activities.
Telemetric activity and temperature monitors were surgically implanted sub-coetaneously into male C57/B6 mice under ketamie (Alfasan, batch number: 112319) and xyalsine (Alfasan, batch number: 073210) (75/10 mg/kg, i.p.) anaesthesia to remotely record activity Correct placement was determined using X-ray radiography.

[2] = test system: C57/B6 mice; assay: Pentobarbital (30 mg/kg i.p.) prolonged sleeping time in mice, loss of righting reflex; conditions: 30 mg/kg oral, 30 min prior to sodium pentobarbital 30 mg/kg i.p.; p<0.05, n>4
Procedure: (§1) C57/B6 mice were randomised into groups and orally administered; ECBRC-T2 (30 mg/kg), melatonin (30 mg/kg), Radix Valerianae (140 mg/kg) or vehicle (10 ml/kg H2O), 30 min prior to low dose injection of sodium pentobarbital (30 mg/kg, i/p.). The animals were then placed on a heating pad (37° C.) and their sleep latency to onset of sleep and the duration of sleep determined according to loss of righting reflex.

[3] = test system: C57/B6 mice; assay: Low dose pentobarbital (16 mg/kg i.p.) sleep time in mice, loss of righting reflex; conditions: for mice sleep time: Table 3, sodium pentobarbital 16 mg/kg i.p.
Procedure: as §1, with “pentobarbital (16” for “pentobarbital (30”
C57/B6 mice were randomised into groups and orally administered ECBRC-T1 (10,50,100,500 mg/kg), 30 min prior to low dose injection of sodium pentobarbital (16 mg/kg, i/p.). The animals were then placed on a heating pad (37° C.) and their sleep latency to onset of sleep and the duration of sleep determined according to loss of righting reflex. […]
The animals were then placed on a heating pad (37° C.) and their sleep latency to onset of sleep and the duration of sleep determined according to loss of righting reflex.

CN1CCN(C(=O)OC2c3nccnc3C(=O)N2c2ccc(Cl)cn2)CC1 (stereo not shown) [Zopiclone, zopiclone]
Telemetric Activity (% sleep time ± SEM) [1]: 66.6 ± 5.1 %
Telemetric Activity (% sleep time ± SEM) ([1]; listed as zopiclone): significantly extended

COc1ccc2[nH]cc(CCNC(C)=O)c2c1 [Melatonin, melatonin]
sleep time compared with the vehicle control group [2]: significantly difference
Sleep time (min ± SEM) ([3]; Table 1, 30 mg/kg oral, 30 min prior to sodium pentobarbital 16 mg/kg i.p.): 63 ± 11 min
mice sleep time ([3]; 10 mg/kg oral): 31 ± 4 n = 4
mice sleep time ([3]; 20 mg/kg oral): 63 ± 5 n = 6
mice sleep time ([3]; 30 mg/kg oral): 68 ± 8 n = 6

— US20080241280A1, “Usage of the Plant of Genus Ampelopsis and Extracts Thereof For Manufacture of Medicament and Functional Food” (priority 2004, published 2008)
